Results from patent publication US8080569B2, “Imidazo[2,1-b]thiazoles and their use as pharmaceuticals” (Sanofi-Aventis, priority 2006, dated 2011).

System: eNOS promoter
Experiment: Activation of eNOS transcription (eNOS promoter-luciferase reporter in human endothelial cell line)
Type: cell-based
Conditions: human endothelial cell line stably transfected with eNOS promoter-luciferase construct, 18 h incubation, EC50 determined graphically; read-out: EC50 values of transcription induction ratios (TIR)
Description: A) Activation of eNOS Transcription
Activation of eNOS transcription was measured as described in detail by Li et al., “Activation of protein kinase C alpha and/or epsilon enhances transcription of the human endothelial nitric oxide synthase gene”, Mol. Pharmacol. 53 (1998), 630-637. Briefly, a 3.5 kB long fragment 5′ of the starting codon of the eNOS gene was cloned, sequenced and cloned in firefly luciferase expression plasmids to monitor activation of the eNOS promoter by reporter gene activity. A human endothelial cell line stable transfected and expressing this promoter-reporter construct was used for compound testing. Cells were incubated for 18 h with the compounds.
All compounds were dissolved in sterile dimethyl sulfoxide (DMSO). A final concentration of 0.5% DMSO in complete medium was allowed. Induction of reporter gene expression in these cells was measured using a standard luciferase assay system (Promega, Cat. No. E150) according to the manufacturer's instructions. Luciferase induction in cells incubated with compounds were compared to those incubated with solvent alone. The ratio of both activities (transcription induction ratio, TIR) was plotted as a function of compound concentration. Typically, TIR values started at low concentrations at a ratio of 1, indicating no compound effect, and extended up to a maximum TIR value TIR(max) which indicates the increase of the eNOS transcription. EC50 values of transcription induction ratios as a function of compound concentration were determined graphically.

EC50, < 500 nM:
Fc1ccc(-c2cn3cc(Br)sc3n2)cc1 [Example 22, 2-Bromo-6-(4-fluoro-phenyl)-imidazo[2,1-b]thiazole]
CCOC(=O)c1sc2nc(-c3ccc(C)cc3)cn2c1C [Example 3, 3-Methyl-6-p-tolyl-imidazo[2,1-b]thiazole-2-carboxylic acid ethyl ester]
CCOC(=O)c1sc2nc(-c3ccc(F)cc3)cn2c1C [Example 1, 6-(4-Fluoro-phenyl)-3-methyl-imidazo[2,1-b]thiazole-2-carboxylic acid ethyl ester]
Cc1c(C(=O)NC(C)(C)C)sc2nc(-c3ccc(F)cc3)cn12 [Example 10, 6-(4-Fluoro-phenyl)-3-methyl-imidazo[2,1-b]thiazole-2-carboxylic acid tert-butylamide]
CCOC(=O)c1sc2nc(-c3cccc(Cl)c3)cn2c1C [Example 2, 6-(3-Chloro-phenyl)-3-methyl-imidazo[2,1-b]thiazole-2-carboxylic acid ethyl ester]
